Key:
Assay in all cases: cells
Format in all cases: functional, cell-based, Homo sapiens
BB65-RCC = tested on: BB65-RCC;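 note: growth inhibition of the cell line, measured with a cell viability assay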
Description: SANGER: Inhibition of human BB65-RCC cell growth in a cell viability assay.

GR-ST = tested on: GR-ST
Description: SANGER: Inhibition of human GR-ST cell growth in a cell viability assay.

KP-N-YS = tested on: KP-N-YS;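 note: cell viability assay measuring inhibition of cell line growth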
Description: SANGER: Inhibition of human KP-N-YS cell growth in a cell viability assay.

SF-268 = tested on: SF-268;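 note: growth inhibition of SF-268 cells determined with a cell viability assay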
Description: SANGER: Inhibition of human SF268 cell growth in a cell viability assay.

NOMO-1 = tested on: NOMO-1;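 note: growth inhibition of human NOMO-1 cells measured by a cell viability assay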
Description: SANGER: Inhibition of human NOMO-1 cell growth in a cell viability assay.

NCI-H1650 = tested on: NCI-H1650;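 note: growth inhibition of human NCI-H1650 cells measured by a cell viability assay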
Description: SANGER: Inhibition of human NCI-H1650 cell growth in a cell viability assay.

NCI-H747 = tested on: NCI-H747;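 note: growth inhibition of human NCI-H747 cells, read out by a cell viability assay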
Description: SANGER: Inhibition of human NCI-H747 cell growth in a cell viability assay.

SK-MEL-1 = tested on: SK-MEL-1;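 note: growth inhibition of human SK-MEL-1 cells, read out by a cell viability assay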
Description: SANGER: Inhibition of human SK-MEL-1 cell growth in a cell viability assay.

J-RT3-T3-5 = tested on: J-RT3-T3-5;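 note: cell viability assay measuring growth inhibition of human J-RT3-T3-5 cells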
Description: SANGER: Inhibition of human J-RT3-T3-5 cell growth in a cell viability assay.

MPP-89 = tested on: MPP-89;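 note: growth inhibition of human MPP-89 cells, read out with a cell viability assay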
Description: SANGER: Inhibition of human MPP-89 cell growth in a cell viability assay.

OCUB-M = tested on: OCUB-M;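 note: growth inhibition of the cancer cell line, read out through a cell viability assay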
Description: SANGER: Inhibition of human OCUB-M cell growth in a cell viability assay.

GCIY = tested on: GCIY;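 note: growth inhibition of the human GCIY cell line, read out by a cell viability assay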
Description: SANGER: Inhibition of human GCIY cell growth in a cell viability assay.

CGTH-W-1 = tested on: CGTH-W-1;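 note: growth inhibition of human CGTH-W-1 cells measured by cell viability assay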
Description: SANGER: Inhibition of human CGTH-W-1 cell growth in a cell viability assay.

IST-MEL1 = tested on: IST-MEL1;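 note: growth inhibition of the cell line, read out with a cell viability assay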
Description: SANGER: Inhibition of human IST-MEL1 cell growth in a cell viability assay.

BE-13 = tested on: BE-13;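 note: growth inhibition of human BE-13 cells, measured with a cell viability assay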
Description: SANGER: Inhibition of human BE-13 cell growth in a cell viability assay.

8-MG-BA = tested on: 8-MG-BA;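 note: growth inhibition of 8-MG-BA cells, read out with a cell viability assay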
Description: SANGER: Inhibition of human 8-MG-BA cell growth in a cell viability assay.

ES4 = tested on: ES4;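 note: growth inhibition of human ES4 cells, read out by a cell viability assay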
Description: SANGER: Inhibition of human ES4 cell growth in a cell viability assay.

A101D = tested on: A101D;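 note: growth inhibition of the cell line, measured with a viability assay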
Description: SANGER: Inhibition of human A101D cell growth in a cell viability assay.

BB30-HNC = tested on: BB30-HNC;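 note: growth inhibition of the cultured cell line, read out by a cell viability assay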
Description: SANGER: Inhibition of human BB30-HNC cell growth in a cell viability assay.

D283 Med = tested on: D283 Med
Description: SANGER: Inhibition of human D-283MED cell growth in a cell viability assay.

COLO-824 = tested on: COLO-824
Description: SANGER: Inhibition of human COLO-824 cell growth in a cell viability assay.

SW 962 = tested on: SW 962;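 note: growth inhibition of human SW962 cells, read out by a cell viability assay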
Description: SANGER: Inhibition of human SW962 cell growth in a cell viability assay.

GOTO = tested on: GOTO;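 note: growth inhibition of GOTO cells, read out by a cell viability assay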
Description: SANGER: Inhibition of human GOTO cell growth in a cell viability assay.

L-363 = tested on: L-363
Description: SANGER: Inhibition of human L-363 cell growth in a cell viability assay.

TE-11 = tested on: TE-11;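 note: growth inhibition of human TE-11 cells, read out by a cell viability assay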
Description: SANGER: Inhibition of human TE-11 cell growth in a cell viability assay.

L-428 = tested on: L-428
Description: SANGER: Inhibition of human L-428 cell growth in a cell viability assay.

SK-N-FI = tested on: SK-N-FI;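 note: cell viability assay measuring growth inhibition of human SK-N-FI cells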
Description: SANGER: Inhibition of human SK-N-FI cell growth in a cell viability assay.

MOLT-16 = tested on: MOLT-16;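 note: growth inhibition of human MOLT-16 cells, read out with a cell viability assay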
Description: SANGER: Inhibition of human MOLT-16 cell growth in a cell viability assay.

TE-5 = tested on: TE-5;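 note: inhibition of cell growth, read out by a cell viability assay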
Description: SANGER: Inhibition of human TE-5 cell growth in a cell viability assay.

HAL-01 = tested on: HAL-01;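 note: growth inhibition of human HAL-01 cells, read out with a cell viability assay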
Description: SANGER: Inhibition of human HAL-01 cell growth in a cell viability assay.

NEC8 = tested on: NEC8;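 note: growth inhibition of human NEC8 cells, read out by a cell viability assay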
Description: SANGER: Inhibition of human NEC8 cell growth in a cell viability assay.

HC-1 = tested on: HC-1;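 note: growth inhibition of HC-1 cells measured by a cell viability assay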
Description: SANGER: Inhibition of human HC-1 cell growth in a cell viability assay.

EW-24 = details: Homo sapiens, EW-24;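 note: human EW-24 cancer cell line, growth inhibition read out via a cell viability assay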
Description: SANGER: Inhibition of human EW-24 cell growth in a cell viability assay.

NCI-H82 = tested on: NCI-H82;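 note: growth inhibition of NCI-H82 cells, measured with a cell viability readout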
Description: SANGER: Inhibition of human NCI-H82 cell growth in a cell viability assay.

IA-LM = tested on: IA-LM;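 note: cell viability assay measuring growth inhibition of human IA-LM cells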
Description: SANGER: Inhibition of human IA-LM cell growth in a cell viability assay.

MFH-ino = tested on: MFH-ino;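 note: growth inhibition of human MFH-ino cells, read out by a cell viability assay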
Description: SANGER: Inhibition of human MFH-ino cell growth in a cell viability assay.

NCI-H1299 = tested on: NCI-H1299;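 note: growth inhibition of human NCI-H1299 cells, read out by a cell viability assay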
Description: SANGER: Inhibition of human NCI-H1299 cell growth in a cell viability assay.

A704 = tested on: A704;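 note: growth inhibition of human A704 cells, read out with a cell viability assay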
Description: SANGER: Inhibition of human A704 cell growth in a cell viability assay.

NCI-H1395 = tested on: NCI-H1395;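 note: cell viability assay read-out quantifying reduced proliferation of human NCI-H1395 cells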
Description: SANGER: Inhibition of human NCI-H1395 cell growth in a cell viability assay.

NB6 = tested on: NB6;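 note: growth inhibition of NB6 cells, read out by a cell viability assay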
Description: SANGER: Inhibition of human NB6 cell growth in a cell viability assay.

NB12 = tested on: NB12;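 note: growth inhibition of human NB12 cells, read out by a cell viability assay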
Description: SANGER: Inhibition of human NB12 cell growth in a cell viability assay.

OVCAR-4 = tested on: OVCAR-4;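 note: growth inhibition of human OVCAR-4 cells, measured with a cell viability assay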
Description: SANGER: Inhibition of human OVCAR-4 cell growth in a cell viability assay.

A3-KAW = tested on: A3-KAW;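 note: growth inhibition of human A3-KAW cells, read out with a cell viability assay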
Description: SANGER: Inhibition of human A3-KAW cell growth in a cell viability assay.

LS-1034 = tested on: LS-1034
Description: SANGER: Inhibition of human LS-1034 cell growth in a cell viability assay.

MSTO-211H = tested on: MSTO-211H
Description: SANGER: Inhibition of human MSTO-211H cell growth in a cell viability assay.

ES6 = tested on: ES6;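 note: growth inhibition of human ES6 cells, read out with a cell viability assay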
Description: SANGER: Inhibition of human ES6 cell growth in a cell viability assay.

NCI-H720 = details: nci-h720;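 note: growth inhibition of human NCI-H720 cells determined by a cell viability assay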
Description: SANGER: Inhibition of human NCI-H720 cell growth in a cell viability assay.

Compound `CS(=O)(=O)c1ccc(C(=O)Nc2ccc(Cl)c(-c3ccccn3)c2)c(Cl)c1` [VISMODEGIB] has an IC50 (BB65-RCC; Homo sapiens, BB65-RCC) of over 10 µM, an IC50 (GR-ST; Homo sapiens, GR-ST) of over 10 µM and an IC50 (KP-N-YS; Homo sapiens, KP-N-YS) of over 10 µM. The IC50 (SF-268; Homo sapiens, SF-268) was over 10 µM, the IC50 (NOMO-1; Homo sapiens, NOMO-1) was over 10 µM and the IC50 (NCI-H1650; Homo sapiens, NCI-H1650) was over 10 µM. It also gave an IC50 (NCI-H747; Homo sapiens, NCI-H747) of over 10 µM, an IC50 (SK-MEL-1; Homo sapiens, SK-MEL-1) of over 10 µM and an IC50 (J-RT3-T3-5; Homo sapiens, J-RT3-T3-5) of over 10 µM. The IC50 (MPP-89; Homo sapiens, MPP-89) was over 10 µM, the IC50 (OCUB-M; Homo sapiens, OCUB-M) was over 10 µM and the IC50 (GCIY; Homo sapiens, GCIY) was over 10 µM. It also gave an IC50 (CGTH-W-1; Homo sapiens, CGTH-W-1) of over 10 µM, an IC50 (IST-MEL1; Homo sapiens, IST-MEL1) of over 10 µM and an IC50 (BE-13; Homo sapiens, BE-13) of over 10 µM. The IC50 (8-MG-BA; Homo sapiens, 8-MG-BA) was over 10 µM, the IC50 (ES4; Homo sapiens, ES4) was over 10 µM and the IC50 (A101D; Homo sapiens, A101D) was over 10 µM. It also gave an IC50 (BB30-HNC; Homo sapiens, BB30-HNC) of over 10 µM, an IC50 (D283 Med; Homo sapiens, D283 Med) of over 10 µM and an IC50 (COLO-824; Homo sapiens, COLO-824) of over 10 µM. The IC50 (SW 962; Homo sapiens, SW 962) was over 10 µM, the IC50 (GOTO; Homo sapiens, GOTO) was over 10 µM and the IC50 (L-363; Homo sapiens, L-363) was over 10 µM. For the same compound, the IC50 (TE-11; Homo sapiens, TE-11) was over 10 µM, the IC50 (L-428; Homo sapiens, L-428) was over 10 µM and the IC50 (SK-N-FI; Homo sapiens, SK-N-FI) was over 10 µM. The IC50 (MOLT-16; Homo sapiens, MOLT-16) was over 10 µM, the IC50 (TE-5; Homo sapiens, TE-5) was over 10 µM and the IC50 (HAL-01; Homo sapiens, HAL-01) was over 10 µM. The IC50 (NEC8; Homo sapiens, NEC8) was over 10 µM, the IC50 (HC-1; Homo sapiens, HC-1) was over 10 µM and the IC50 (EW-24) was over 10 µM. It also gave an IC50 (NCI-H82; Homo sapiens, NCI-H82) of over 10 µM, an IC50 (IA-LM; Homo sapiens, IA-LM) of over 10 µM and an IC50 (MFH-ino; Homo sapiens, MFH-ino) of over 10 µM. The IC50 (NCI-H1299; Homo sapiens, NCI-H1299) was over 10 µM, the IC50 (A704; Homo sapiens, A704) was over 10 µM and the IC50 (NCI-H1395; Homo sapiens, NCI-H1395) was over 10 µM. It also gave an IC50 (NB6; Homo sapiens, NB6) of over 10 µM, an IC50 (NB12; Homo sapiens, NB12) of over 10 µM and an IC50 (OVCAR-4; Homo sapiens, OVCAR-4) of over 10 µM. For the same compound, the IC50 (A3-KAW; Homo sapiens, A3-KAW) was over 10 µM, the IC50 (LS-1034; Homo sapiens, LS-1034) was over 10 µM and the IC50 (MSTO-211H; Homo sapiens, MSTO-211H) was over 10 µM. It also gave an IC50 (ES6; Homo sapiens, ES6) of over 10 µM.
Compound CISPLATIN has an IC50 (BB65-RCC; bb65-rcc) of 2.82 µM, an IC50 (GR-ST; gr-st) of 7.5 µM and an IC50 (KP-N-YS; kp-n-ys) of 811 µM. The IC50 (SF-268; sf-268) was 5.12 µM, the IC50 (NOMO-1; nomo-1) was 123 µM and the IC50 (NCI-H1650; nci-h1650) was 19 µM. For the same compound, the IC50 (NCI-H747; nci-h747) was 16.9 µM, the IC50 (SK-MEL-1; sk-mel-1) was 14.7 µM and the IC50 (J-RT3-T3-5; j-rt3-t3-5) was 148 µM. It also gave an IC50 (MPP-89; mpp-89) of 16.2 µM, an IC50 (OCUB-M; ocub-m) of 22.7 µM and an IC50 (GCIY; gciy) of 18.5 µM. For the same compound, the IC50 (CGTH-W-1; cgth-w-1) was 4.55 µM, the IC50 (IST-MEL1; ist-mel1) was 9.38 µM and the IC50 (NCI-H720) was 136 µM. The IC50 (BE-13; be-13) was 51.1 µM, the IC50 (8-MG-BA; 8-mg-ba) was 5.38 µM and the IC50 (ES4; es4) was 1.6 µM. For the same compound, the IC50 (A101D; a101d) was 21.7 µM, the IC50 (BB30-HNC; bb30-hnc) was 24.5 µM and the IC50 (D283 Med; d283 med) was 5.85 µM. It also gave an IC50 (COLO-824; colo-824) of 114 µM, an IC50 (SW 962; sw 962) of 64.6 µM and an IC50 (GOTO; goto) of 3.09 µM. The IC50 (L-363; l-363) was 4.01 µM, the IC50 (TE-11; te-11) was 16.4 µM and the IC50 (L-428; l-428) was 18.9 µM. For the same compound, the IC50 (SK-N-FI; sk-n-fi) was 313 µM, the IC50 (MOLT-16; molt-16) was 8.36 µM and the IC50 (TE-5; te-5) was 211 µM. It also gave an IC50 (HAL-01; hal-01) of 109 µM, an IC50 (NEC8; nec8) of 2.52 µM and an IC50 (HC-1; hc-1) of 9.5 µM. For the same compound, the IC50 (NCI-H82; nci-h82) was 74.9 µM, the IC50 (IA-LM; ia-lm) was 23.1 µM and the IC50 (MFH-ino; mfh-ino) was 1340 µM. It also gave an IC50 (NCI-H1299; nci-h1299) of 26.8 µM, an IC50 (A704; a704) of 115 µM and an IC50 (NCI-H1395; nci-h1395) of 43.4 µM. For the same compound, the IC50 (NB6; nb6) was 318 µM, the IC50 (NB12; nb12) was 166 µM and the IC50 (OVCAR-4; ovcar-4) was 22.3 µM. It also gave an IC50 (A3-KAW; a3-kaw) of 164 µM, an IC50 (LS-1034; ls-1034) of 22.7 µM and an IC50 (MSTO-211H; msto-211h) of 57.1 µM. It also gave an IC50 (ES6; es6) of 21.3 µM.

Reference: ChEMBL document CHEMBL1201861, “Genomics of Drug Sensitity in Cancer screening data, Wellcome Trust Sanger Institute”
